Like-named read-outs stand apart in the source and are kept apart here.
Tests used:
Assay type in all cases: cell-based, human
[1] = system: side population of DU145 cells
[2] = system: side population of DU145/Pac200 cells
[3] = system: side population of LAPC-4 cells
Description: (§1) Three samples were analyzed each time. Of the samples one was treated with DCV only, another was treated with DCV and 50 μM Verapamil (PgP inhibitor), and the last was treated with DCV and 10 μM Fumitremorgin C (FTC, BCRP inhibitor). The samples were then read and analyzed using flow cytometry.
(§2) Flow Cytometry: Samples were read on a BDLSR II flow cytometer. […] Detectors at 450/50 (blue) and 680/30 (red) intercepted the emitted wavelength and plotted the data on the scatter plot accordingly. CD44 and Pgp staining was performed using PE (Pgp) or APC (CD44) labeled antibodies and their isotype controls following routine procedures for epitope labeling.
(§3) Each of the prostate cell lines was analyzed for the existence of a cancer stem-like cell fraction using DCV side population analysis. […] The occurrence of a SP is based on the expression of drug efflux pumps such as P-glycoprotein or BCRP, which are responsible for preventing standard cytotoxic therapy from working. […] Because the hormone therapies, e.g., androgen synthesis inhibitors, are not substrates of drug efflux pumps, these findings are not surprising.

[4] = system: side population of LnCaP/C81 cells
Description: as §1, §2, §3

[5] = system: side population of LAPC-4/CSS100 cells
Description: as §1, §2, §3

[6] = system: side population of DU145/Doc50 cells
Description: as §1, §2, §3

[7] = system: side population of LnCaP cells
Description: as §1, §2, §3

[8] = system: DU145 wt cells; assay: MTT proliferation assay, DU145 wt
Description: (§4) Cell Lines: DU145 wt, DU145/Pac200 and DU145/Doc50 cells were provided by Dr. Hussain, UMGCC, University of Maryland. The cell lines were cultured as recommended; in 1:1 DMEM/F12 media (Invitrogen) supplemented with 5% FBS, 1% antibiotics and grown under standard conditions at 37° C. and 5% CO2. Paclitaxel and docetaxel resistant clones were kept under selection pressure of the drugs.
(§5) MTT Proliferation Assay: Exponentially growing cells were harvested and plated in 96-well plates (1,500/well for DU145 wt, and 2,000-3,000/well for DU145/Pac200 and DU145/Doc50). Drugs being tested were added at concentrations ranging from 0.01 μM to 100 μM to asses their growth inhibitory potential. After 5 days of continuous exposure to drug, the vital dye 3-(4,5-dimethylthiazol-2-yl)-2,5-diphenyltetrazoliumbromide (MTT) was added to the plates. The conversion of MTT to purple formazan by viable cells was measured using a Synergy2 plate reader at 550 nm and Gen5 software. Growth curves were generated using Microsoft Excel and growth inhibitory concentration 50 (IC50) and 100% were determined.

[9] = system: DU145/Pac200 (paclitaxel resistant) cells; assay: MTT proliferation assay, DU145/Pac200
Description: as §4, §5

[10] = system: DU145/Doc50 (docetaxel resistant) cells; assay: MTT proliferation assay, DU145/Doc50
Description: as §4, §5

[11] = system: hTERT transcript
[12] = system: prostate cancer cell lines (taxane-resistant, androgen resistant and parental); assay: MTT assay across the panel of prostate cancer cell lines
Description: as §5
Taxane resistant cell lines DU145/Pac200 (highly pacitaxel resistant) and DU145/Doc50 (highly docetaxel resistant) together with the parental cell line DU145 as well as the androgen resistant cancer cell lines (LNCaP/C81 and LAPC-4/CSS100) and their corresponding hormone responsive parental cell lines (LNCaP and LAPC-4) were tested for their response to sodium meta arsenite.
The cancer cell lines that were resistant to paclixel and docetaxel were tested using a well-established tumor clonigenic stem cell assay for their response to KML001. (FIG. 6) The assay allows only the cancer stem cell population to grow in a soft agar matrix owing to their self-renewal capability. […]

[13] = system: LnCaP cells; details: read-out: IC50 KML001
[14] = system: DU145/Pac200 cancer stem cell population; details: read-out: IC50, colony forming capability
[15] = system: LAPC-4/CSS100 cells; details: read-out: IC50 KML001
[16] = system: DU145 cancer stem cell population; details: read-out: IC50, colony forming capability
[17] = system: Pgp positive cell population of taxane-resistant prostate cancer cell lines; assay: Pgp surface expression by flow cytometry; details: treatment at IC50 for 72 hours
Description: Flow Cytometry: Samples were read on a BDLSR II flow cytometer. A […] violet laser excited the DCV dye producing varying wavelengths based on cell differentiation. Detectors at 450/50 (blue) and 680/30 (red) intercepted the emitted wavelength and plotted the data on the scatter plot accordingly. CD44 and Pgp staining was performed using PE (Pgp) or APC (CD44) labeled antibodies and their isotype controls following routine procedures for epitope labeling.
The drug efflux pump (Pgp) is functionally expressed (at the membrane) in the majority of cells in the taxane-resistant prostate cancer cell lines, which is expected since the SP of those cell lines was suppressible with the drug efflux pump inhibitor verapamil. Treatment with KML001 at IC50 for 72 hours reduced the Pgp positive cell population, which corroborates the results of the clonogenic and SP assay.

[18] = system: LnCaP/C81 cells; details: read-out: IC50 KML001
[19] = system: LAPC-4 cells; details: read-out: IC50 KML001
[20] = DU145/Pac200 relative to DU145 wt
[21] = Du145 Doc50 relative to DU145 wt

SMILES: COc1ccc2c3c([nH]c2c1)[C@H](C=C(C)C)N1C(=O)[C@@H]2CCCN2C(=O)[C@@H]1C3 [FTC, Fumitremorgin C]
- SP % with FTC ([1]; DU145, DCV with 10 μM FTC, SP 1.04 % without inhibitor): 0.06%
- SP % with FTC ([2]; DU145/Pac200, DCV with 10 μM FTC, SP 55 % without inhibitor): 56.5%
- inhibition of SP by efflux pump inhibitor ([2]; Pac resistant DU145 cells): not
- suppression of SP by efflux pump inhibitor ([3]; LAPC-4): suppressible
- SP % with FTC ([3]; LAPC-4, DCV with 10 μM FTC, SP 1.54 % without inhibitor): 2.24%
- suppression of SP by efflux pump inhibitor ([4]; LnCaP/C81): suppressible
- SP % with FTC ([4]; LnCaP/C81, DCV with 10 μM FTC, SP 0.16 % without inhibitor): 0.11%
- SP % with FTC ([5]; LAPC-4/CSS100, DCV with 10 μM FTC, SP 0.36 % without inhibitor): 0.30%
- suppression of SP by efflux pump inhibitor ([5]; hormone resistant derivative of LAPC-4): suppressible
- SP % with FTC ([6]; DU145/Doc50, DCV with 10 μM FTC, SP 40.3 % without inhibitor): 18.35%
- inhibition of SP by efflux pump inhibitor ([6]; Doc resistant DU145 cells): not
- suppression of SP by efflux pump inhibitor ([7]; LnCaP parental line): suppressible
- SP % with FTC ([7]; LnCaP, DCV with 10 μM FTC, SP 0.66 % without inhibitor): 0.04%

SMILES: COc1ccc(CCN(C)CCCC(C#N)(c2ccc(OC)c(OC)c2)C(C)C)cc1OC (stereo not shown) [Verapamil]
- SP % with Verapamil ([1]; DU145, DCV with 50 μM Verapamil, SP 1.04 % without inhibitor): 0.16%
- SP % with Verapamil [2]: 0.07%
- SP % with Verapamil [3]: 1.63%
- SP % with Verapamil [4]: 0.07%
- SP % with Verapamil [5]: 0.19%
- SP % with Verapamil [6]: 1.35%
- SP % with Verapamil [7]: 0.12%

SMILES: CC(=O)O[C@@]12CO[C@@H]1C[C@H](O)[C@@]1(C)C(=O)[C@H](O)C3=C(C)[C@@H](OC(=O)[C@H](O)[C@@H](NC(=O)OC(C)(C)C)c4ccccc4)C[C@@](O)([C@@H](OC(=O)c4ccccc4)[C@H]21)C3(C)C [Docetaxel]
- Docetaxel Resistance (fold) ([8]; DU145 wt (reference line)): 1 fold
- IC50 ([8]; Homo sapiens, DU-145, DU145 wt, read-out: Docetaxel IC50): 0.0005 µM
- Docetaxel Resistance (fold) [9, 20]: 400 fold
- IC50 ([9]; Homo sapiens, DU-145, DU145/Pac200, read-out: Docetaxel IC50): 0.2 µM
- Docetaxel Resistance (fold) [10, 21]: 2000 fold
- IC50 ([10]; Homo sapiens, DU-145, Du145 Doc50, read-out: Docetaxel IC50): 1 µM

SMILES: N.N.[Cl][Pt][Cl] [cisplatin]
- IC50 ([8]; DU145 parental, standard MTT, read-out: IC50 of cisplatin): 4 µM
- IC50 ([9]; DU145/Pac200, standard MTT, read-out: IC50 of cisplatin): 3 µM

SMILES: O=[As][O-].[Na+] [KML001, sodium meta arsenite]
- hTERT transcript level [11]: significantly decreases
- effect on mature (non-SP) cells after pretreatment [1]: also eradicated
- effect on side population (SP) after pretreatment [1]: drastically reducing the SP
- sensitivity of resistant versus parental cell lines ([12]; growth curves from standard MTT assays): equally effective
- IC50 ([12]; taxane-resistant, androgen resistant and hormone responsive parental lines, read-out: IC50's across all prostate cancer cell lines): 1 to 6 µM
- IC50 [13]: 4 µM
- IC50 [14]: 6 µM
- IC50 [15]: 3 µM
- effect on mature (non-SP) cells after pretreatment [2]: also eradicated
- effect on side population (SP) after pretreatment [2]: drastically reducing the SP
- IC50 [16]: 6 µM
- Pgp positive cell population [17]: reduced
- IC100 concentration [8]: 13 µM
- growth inhibition [8]: marked inhibition of growth
- IC50 ([8]; read-out: IC50 KML001): 4 µM
- IC50 [18]: 1 µM
- growth inhibition ([9]; DU145/Pac200, MTT): marked inhibition of growth
- IC50 ([9]; DU145/Pac200, MTT, 5 days continuous exposure, read-out: IC50 KML001): 6 µM
- growth inhibition ([10]; DU145/Doc50, MTT): marked inhibition of growth
- IC50 ([10]; DU145/Doc50, MTT, 5 days continuous exposure, read-out: IC50 KML001): 5 µM
- IC50 [19]: 4 µM

SMILES: CC(=O)O[C@H]1C(=O)[C@@]2(C)[C@H]([C@H](OC(=O)c3ccccc3)[C@]3(O)C[C@H](OC(=O)[C@H](O)[C@@H](NC(=O)c4ccccc4)c4ccccc4)C(C)=C1C3(C)C)[C@]1(OC(C)=O)CO[C@@H]1C[C@@H]2O [Paclitaxel]
- Paclitaxel Resistance (fold) ([8]; DU145 wt (reference line)): 1 fold
- IC50 ([8]; Homo sapiens, DU-145, DU145 wt, read-out: Paclitaxel IC50): 0.0025 µM
- Paclitaxel Resistance (fold) [9, 20]: 140 fold
- IC50 ([9]; Homo sapiens, DU-145, DU145/Pac200, read-out: Paclitaxel IC50): 0.35 µM
- Paclitaxel Resistance (fold) [10, 21]: 400 fold
- IC50 ([10]; Homo sapiens, DU-145, Du145 Doc50, read-out: Paclitaxel IC50): 1 µM
